For orientation: GI50 means the concentration giving 50% growth inhibition. The low end stands for more potent growth inhibition, the high end for less potent growth inhibition.

In one data set the test system is MV-4-11 xenograft tumors. Kind of data set: Intratumoral dATP and ATP pool in MV-4-11 xenograft tumors after single oral dose. Particulars: 1 and 2 h post-administration, 50 mg/kg and 200 mg/kg single oral dose. In kind it is in vivo, rat. The method, then:
To determine whether TAS1553 achieved RNR inhibition in an in vivo model, we examined the effect of a single dose of orally administered TAS1553 on intratumoral dATP pool, DNA replication stress, and apoptosis in rats that were subcutaneously implanted with a xenograft of MV-4-11 cell line. […] The decline in the intratumoral dATP pool recovered 4 h after the administration of both doses. We also evaluated the DNA replication stress and apoptosis induction in tumors following TAS1553 administration. Consistent with the modulation of the dATP pool, the single administration of TAS1553 (50 mg/kg or more) caused the phosphorylation of Chk1 at Ser345 1 and 2 h post-administration. Furthermore, TAS1553 administration also led to induction in cleaved PARP and cleaved caspase-3 levels, following to Chk1 phosphorylation (Fig. 4d).
Cells were plated, cultured for 1 day, treated with the compound, and harvested. The collected cells were homogenized with 0.42 mol/L perchloric acid, including IS-dATP at 0.6 μmol/L and IS-ATP at 2.4 μmol/L as internal standards for dATP and ATP, respectively. At each time point, xenograft tumors were excised after single dosing of the test compound. The tissues were homogenized with 0.42 mol/L perchloric acid, including IS-dATP at 3 μmol/L as an internal standard for dATP and ATP. […] The aqueous layer collected after vortex and centrifugation was analyzed by LC-MS/MS. […]

The test system of data set [1] is human solid and hematological cancer cell lines. Put plainly: Cell proliferation assay (CellTiter-Glo), cell line panel. It counts as cell-based. The note with it: 72 h, range over solid and hematological cancer cell lines, 3 days exposure. The method, then: The growth inhibitory effect of TAS1553 was determined by calculating the GI50 value against human solid and hematological cancer cell lines.
(§1) Cell proliferation assay was performed as reported previously. Briefly, cells were plated and incubated for 1 day, followed by 3 days of exposure to the compound. After compound exposure, viable cells were detected by using the CellTiter-Glo luminescent cell viability assay (Promega). GI50 values were calculated using the SAS software package. The experiment was performed in triplicates.
(In ATP-based viability assays light output follows the ATP content of the culture.)

The next data set has as its system MV-4-11 cells. Kind of data set: Cell proliferation assay (CellTiter-Glo), MV-4-11. The note with it: Homo sapiens, MV4-11, 72 h; MV-4-11, 3 days exposure. In kind it is cell-based. Here is the method:
(§2) Next, we evaluated both concentration-dependent and time-dependent effects of TAS1553 on the dATP pool in HCC38 and MV-4-11 cell lines using absolute quantification. After 2 h of TAS1553 exposure, there was a concentration-dependent reduction of intracellular dATP pool in both cell lines (Fig. 2c). Furthermore, the intracellular dATP pool was reduced within 30 minutes when treated with TAS1553 at 1 or 10 µmol/L in both cell lines (Fig. 2d), consistent with its inhibitory effect on the protein-protein interaction (Fig. 2a).
as §1

Data set [2] concerns intracellular dNTP pools in HCC38 and MV-4-11 cells. Put plainly: Measurement of intracellular dNTP/ATP pools by LC-MS/MS. It counts as cell-based, human. Here is the method:
Next, we examined the RNR inhibitory effect of TAS1553 in cells by measuring dNDP pools which are direct products of RNR. However, all dNDP pools could not be detected using LC-MS/MS due to detection limit. Then we determined whether TAS1553 affected the intracellular dNTP pools as surrogate marker for RNR inhibition in cells. LC-MS/MS could not measure dGTP pool due to masking dGTP peak by ATP, as previously reported; thus, dATP, dCTP and dTTP pools were analyzed. HCC38 and MV-4-11, an acute myelogenous leukemia (AML) cell line, were exposed to TAS1553, and the peak area of each dNTP was determined using cell extracts.
as §2
Cells were plated, cultured for 1 day, treated with the compound, and harvested. The collected cells were homogenized with 0.42 mol/L perchloric acid, including IS-dATP at 0.6 μmol/L and IS-ATP at 2.4 μmol/L as internal standards for dATP and ATP, respectively. At each time point, xenograft tumors were excised after single dosing of the test compound. The tissues were homogenized with 0.42 mol/L perchloric acid, including IS-dATP at 3 μmol/L as an internal standard for dATP and ATP. Subsequently, a dichloromethane solution containing 0.5 N tri-n-octylamine was added to the perchloric acid-soluble fraction obtained by centrifugation. The aqueous layer collected after vortex and centrifugation was analyzed by LC-MS/MS. LC-MS/MS analysis was performed with a prominence HPLC system connected to a LCMS-8040 tandem mass spectrometer with ESI probe (SHIMADZU CORPORATION). […]

A short description of a further data set: Plasma exposure in rats. Particulars: nude rats. The method, then: First, we analyzed the exposure of TAS1553 when administered orally.
Next, we evaluated the antitumor activity of a high-dose administration of TAS1553 and cytarabine in rats bearing MV-4-11 xenografts. […] The rats were treated with cytarabine for 5 days at 16 and 32 mg/kg. […] In addition to the hematologic tumor, we evaluated the antitumor activity of TAS1553 in mice implanted with HCC38 cell line as a solid tumor model. […] Finally, TAS1553 was evaluated for its survival benefit in a mouse model. To achieve this, we established mice bone marrow cells harboring the human MLL-AF9 fusion gene, which is known as a driver gene for AML in humans as well as mice[48]. Mice were transplanted with the cells through the tail vein and the treatment with TAS1553 was started 11 days post-implantation.
F344/NJcl-rnu/rnu rats were orally administered with TAS1553 (two animals per group). The plasma samples were collected at each point. TAS1553 concentrations in plasma were measured with the LC-MS/MS.

As for `Cc1ccc(F)c([C@@H](C)[C@H](NS(=O)(=O)c2ccc(Cl)cc2C(N)=O)c2n[nH]c(=O)o2)c1C` [TAS1553, 5-chloro-2-{N-[(1S,2R)-2-(6-fluoro-2,3-dimethylphenyl)-1-(5-oxo-4,5-dihydro-1,3,4-oxadiazol-2-yl)propyl]sulfamoyl}benzamide], the “effect on intratumoral dATP pool” value with MV-4-11 xenograft tumors is “significant reduction”. In addition, in data set [1], the GI50 fell in the range of 228 to 4150 nM. In the data set with MV-4-11 cells, the GI50 turned out to be 393 nM. For the same compound, in data set [2] (HCC38 and MV-4-11, 2 h), the “effect on intracellular dATP area” value is “dramatically reduced”; the “effect on intracellular dCTP and dTTP areas” value is given as “increased”. Further, the “effect on intracellular ATP pool” value in data set [2] (until 2 h, 10 µmol/L) is “did not affect the intracellular ATP pool remarkably”. For the same compound, in “Plasma exposure in rats”, the “plasma concentration after single oral dose” value was “dose-dependent rise”.

The values are drawn from PMC9184620, “TAS1553, a small molecule subunit interaction inhibitor of ribonucleotide reductase, exhibits antitumor activity by causing DNA replication stress” (Communications Biology, 2022).
